# Experimental data from ChEMBL document CHEMBL1201862, “PubChem BioAssay data set” (2004).
# “And” between values parts separate entries of the source, which are not always exact repeats. Equal entries are not always repeated.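 Interpolation was linear, between the two tested concentrations surrounding the appropriate level; five concentrations were tested over 48 hours in 96-well plates. GI50 is the concentration that inhibits growth by half.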 The source made the active and inactive calls. Cut-off read from the data, not from the text of the source: active = GI50 up to about 1.1 µM and inactive = higher.
# Columns and labels:
# Experiment in all cases: inhibition of tumour cell growth, NCI panel, 48 h
# UACC-62 = tested on: UACC-62
# U-251 = tested on: U-251
# RXF 393 = tested on: RXF 393
# SW-620 = tested on: SW-620
# DU-145 = tested on: DU-145
# MCF7 = tested on: MCF7
# PC-3 = tested on: PC-3
# Hs-578T = tested on: Hs-578T
# UO-31 = tested on: UO-31
# HT-29 = tested on: HT-29
# OVCAR-8 = tested on: OVCAR-8
# SK-MEL-28 = tested on: SK-MEL-28
# HOP-62 = tested on: HOP-62
# HCC 2998 = tested on: HCC 2998
# CCRF-CEM = tested on: CCRF-CEM
# LOX IMVI = tested on: LOX IMVI
# EKVX = tested on: EKVX
# SK-OV-3 = tested on: SK-OV-3
# HCT-116 = tested on: HCT-116
# SF-295 = tested on: SF-295
# NCI/ADR-RES = tested on: NCI/ADR-RES
# OVCAR-3 = tested on: OVCAR-3
# MDA-MB-231 = tested on: MDA-MB-231
# OVCAR-5 = tested on: OVCAR-5
# NCI-H226 = tested on: NCI-H226
# MOLT-4 = tested on: MOLT-4
# ACHN = tested on: ACHN
# HCT-15 = tested on: HCT-15
# SNB-75 = tested on: SNB-75
# IGROV-1 = tested on: IGROV-1
# M14 = tested on: M14
# HL-60 = tested on: HL-60
# 786-0 = tested on: 786-0
# SK-MEL-2 = tested on: SK-MEL-2
# NCI-H522 = tested on: NCI-H522
# K562 = tested on: K562
# KM12 = tested on: KM12
# OVCAR-4 = tested on: OVCAR-4
# T47D = tested on: T47D
# UACC-257 = tested on: UACC-257
# RPMI-8226 = tested on: RPMI-8226
# A549 = tested on: A549
# MDA-MB-435 = tested on: MDA-MB-435
# CAKI-1 = tested on: CAKI-1
# SR = tested on: SR
# SF-539 = tested on: SF-539
# TK-10 = tested on: TK-10
# SNB-19 = tested on: SNB-19
# SN12C = tested on: SN12C
# SF-268 = tested on: SF-268
# HOP-92 = tested on: HOP-92
# NCI-H23 = tested on: NCI-H23
# A498 = tested on: A498
# COLO 205 = tested on: COLO 205
# Malme-3M = tested on: Malme-3M
# MDA-N = tested on: MDA-N
# SK-MEL-5 = tested on: SK-MEL-5
# NCI-H460 = tested on: NCI-H460
smiles,measurement,setting,value
CCCCCCCCCCCCCCCCCCNc1ccn(C2OC(COP(=O)(O)OCCCCCCCCCCCCCCCC)C(O)C2O)c(=O)n1 (configuration not stated),GI50,UACC-62,> 100 µM (inactive)
same,GI50,U-251,> 100 µM (inactive)
same,GI50,RXF 393,> 100 µM (inactive)
same,GI50,SW-620,> 100 µM (inactive)
same,GI50,DU-145,> 100 µM (inactive)
same,GI50,MCF7,> 100 µM (inactive)
same,GI50,PC-3,> 100 µM (inactive)
same,GI50,Hs-578T,83.8 µM (inactive)
same,GI50,UO-31,> 100 µM (inactive)
same,GI50,HT-29,> 100 µM (inactive)
same,GI50,OVCAR-8,> 100 µM (inactive)
same,GI50,SK-MEL-28,> 100 µM (inactive)
same,GI50,HOP-62,> 100 µM (inactive)
same,GI50,HCC 2998,> 100 µM (inactive)
same,GI50,CCRF-CEM,77.8 µM (inactive)
same,GI50,LOX IMVI,82 µM (inactive)
same,GI50,EKVX,> 100 µM (inactive)
same,GI50,SK-OV-3,> 100 µM (inactive)
same,GI50,HCT-116,> 100 µM (inactive)
same,GI50,SF-295,> 100 µM (inactive)
same,GI50,NCI/ADR-RES,> 100 µM (inactive)
same,GI50,OVCAR-3,> 100 µM (inactive)
same,GI50,MDA-MB-231,> 100 µM (inactive)
same,GI50,OVCAR-5,> 100 µM (inactive)
same,GI50,NCI-H226,> 100 µM (inactive)
same,GI50,MOLT-4,> 100 µM (inactive)
same,GI50,ACHN,> 100 µM (inactive)
same,GI50,HCT-15,> 100 µM
same,GI50,SNB-75,74.1 µM (inactive)
same,GI50,IGROV-1,> 100 µM (inactive)
same,GI50,M14,> 100 µM (inactive)
same,GI50,HL-60,58.3 µM (inactive)
same,GI50,786-0,> 100 µM (inactive)
same,GI50,SK-MEL-2,> 100 µM (inactive)
same,GI50,NCI-H522,51.3 µM (inactive)
same,GI50,K562,> 100 µM (inactive)
same,GI50,KM12,> 100 µM (inactive)
same,GI50,OVCAR-4,> 100 µM (inactive)
same,GI50,T47D,> 100 µM (inactive)
same,GI50,UACC-257,> 100 µM (inactive)
same,GI50,RPMI-8226,> 100 µM (inactive)
same,GI50,A549,> 100 µM (inactive)
same,GI50,MDA-MB-435,> 100 µM (inactive)
same,GI50,CAKI-1,> 100 µM (inactive)
same,GI50,SR,> 100 µM (inactive)
same,GI50,SF-539,> 100 µM (inactive)
same,GI50,TK-10,> 100 µM (inactive)
same,GI50,SNB-19,> 100 µM (inactive)
same,GI50,SN12C,> 100 µM (inactive)
same,GI50,SF-268,> 100 µM (inactive)
same,GI50,HOP-92,> 100 µM (inactive)
same,GI50,NCI-H23,> 100 µM (inactive)
same,GI50,A498,> 100 µM (inactive)
same,GI50,COLO 205,> 100 µM (inactive)
COc1ccc2c(c1)[n+]([O-])c1ccccc1[n+]2[O-],GI50,UACC-62,23.7 µM (inactive) and 18.5 µM (inactive)
same,GI50,Malme-3M,38.7 µM (inactive) and 37.7 µM (inactive)
same,GI50,U-251,22.6 µM (inactive) and 37.4 µM (inactive)
same,GI50,SW-620,24.7 µM (inactive) and 29.9 µM (inactive)
same,GI50,UO-31,10.3 µM (inactive) and 10.2 µM (inactive)
same,GI50,HT-29,29.9 µM (inactive) and 51.5 µM (inactive)
same,GI50,OVCAR-8,18.5 µM (inactive) and 17.2 µM (inactive)
same,GI50,SK-MEL-28,78.7 µM (inactive)
same,GI50,HOP-62,29.1 µM (inactive) and 36.8 µM (inactive)
same,GI50,HCC 2998,29.1 µM (inactive)
same,GI50,CCRF-CEM,22.8 µM (inactive) and 17.9 µM (inactive)
same,GI50,EKVX,34 µM (inactive) and 17.5 µM (inactive)
same,GI50,SK-OV-3,24.7 µM (inactive)
same,GI50,HCT-116,31.5 µM (inactive) and 47.2 µM (inactive)
same,GI50,SF-295,21.6 µM (inactive) and 39.8 µM (inactive)
same,GI50,NCI/ADR-RES,29.9 µM (inactive) and 53.3 µM (inactive)
same,GI50,OVCAR-3,36.1 µM (inactive) and 44.8 µM (inactive)
same,GI50,MDA-MB-231,29.7 µM (inactive) and 37.7 µM (inactive)
same,GI50,OVCAR-5,38.7 µM (inactive) and 65.9 µM (inactive)
same,GI50,NCI-H226,26.4 µM (inactive) and 27.2 µM (inactive)
same,GI50,HCT-15,15.1 µM and 28.2 µM
same,GI50,SNB-75,70.1 µM (inactive) and 35.2 µM (inactive)
same,GI50,IGROV-1,5.9 µM (inactive)
same,GI50,MDA-N,73.8 µM (inactive)
same,GI50,SK-MEL-5,18.4 µM (inactive) and 24.1 µM (inactive)
same,GI50,SK-MEL-2,26.9 µM (inactive) and 21.8 µM (inactive)
same,GI50,NCI-H522,12.6 µM (inactive) and 14.6 µM (inactive)
same,GI50,KM12,40.5 µM (inactive) and 22.4 µM (inactive)
same,GI50,OVCAR-4,25 µM (inactive)
same,GI50,RPMI-8226,20.3 µM (inactive) and 19.5 µM (inactive)
same,GI50,A549,11 µM (inactive) and 21.7 µM (inactive)
same,GI50,TK-10,34.1 µM (inactive) and 31.5 µM (inactive)
same,GI50,SN12C,28.6 µM (inactive) and 21 µM (inactive)
same,GI50,HOP-92,47.1 µM (inactive)
same,GI50,NCI-H23,24.7 µM (inactive) and 37.5 µM (inactive)
same,GI50,COLO 205,33.2 µM (inactive) and 19.1 µM (inactive)
CC(C)Oc1c(O)c2c3c(oc(=O)n3C=CC2c2ccccc2)c1OC(C)C (configuration not stated),GI50,U-251,20.8 µM (inactive)
same,GI50,SW-620,32 µM (inactive)
same,GI50,DU-145,34 µM (inactive)
same,GI50,MCF7,19.6 µM (inactive)
same,GI50,PC-3,17 µM (inactive)
same,GI50,UO-31,14.2 µM (inactive)
same,GI50,HT-29,24.2 µM (inactive)
same,GI50,OVCAR-8,31.9 µM (inactive)
same,GI50,SK-MEL-28,22.5 µM (inactive)
same,GI50,HOP-62,26.7 µM (inactive)
same,GI50,HCC 2998,19 µM (inactive)
same,GI50,LOX IMVI,37.8 µM (inactive)
same,GI50,EKVX,22.3 µM (inactive)
same,GI50,SK-OV-3,> 100 µM (inactive)
same,GI50,HCT-116,28.8 µM (inactive)
same,GI50,SF-295,20.8 µM (inactive)
same,GI50,NCI/ADR-RES,27.5 µM (inactive)
same,GI50,OVCAR-3,21.5 µM (inactive)
same,GI50,MDA-MB-231,30.3 µM (inactive)
same,GI50,OVCAR-5,34.4 µM (inactive)
same,GI50,NCI-H226,27.6 µM (inactive)
same,GI50,MOLT-4,31 µM (inactive)
same,GI50,ACHN,> 10 µM (inactive)
same,GI50,HCT-15,12.8 µM
same,GI50,SNB-75,21.9 µM (inactive)
same,GI50,IGROV-1,21.9 µM (inactive)
same,GI50,MDA-N,36.3 µM (inactive)
same,GI50,M14,20 µM (inactive)
same,GI50,HL-60,27 µM (inactive)
same,GI50,786-0,36.1 µM (inactive)
same,GI50,SK-MEL-5,32.3 µM (inactive)
same,GI50,SK-MEL-2,15.7 µM (inactive)
same,GI50,KM12,21.5 µM (inactive)
same,GI50,OVCAR-4,24.6 µM (inactive)
same,GI50,T47D,25.9 µM (inactive)
same,GI50,UACC-257,25.1 µM (inactive)
same,GI50,A549,27.3 µM (inactive)
same,GI50,MDA-MB-435,> 10 µM (inactive)
same,GI50,CAKI-1,29.2 µM (inactive)
same,GI50,SF-539,19.7 µM (inactive)
same,GI50,TK-10,22.1 µM (inactive)
same,GI50,SNB-19,20.3 µM (inactive)
same,GI50,SN12C,36.5 µM (inactive)
same,GI50,HOP-92,30.2 µM (inactive)
same,GI50,NCI-H23,20.2 µM (inactive)
same,GI50,NCI-H460,14.7 µM (inactive)
same,GI50,COLO 205,22.1 µM (inactive)
